How the values were obtained:
esterases and amidases = experiment: Selectivity: inhibition of a series of esterases and amidases; format: biochemical; conditions: selectivity panel
human microsomal EH = target: T1, human microsomal EH (Homo sapiens, UniProt P07099); experiment: Selectivity: inhibition of microsomal EH; format: biochemical; conditions: selectivity panel
T1 sequence (P07099 1-455): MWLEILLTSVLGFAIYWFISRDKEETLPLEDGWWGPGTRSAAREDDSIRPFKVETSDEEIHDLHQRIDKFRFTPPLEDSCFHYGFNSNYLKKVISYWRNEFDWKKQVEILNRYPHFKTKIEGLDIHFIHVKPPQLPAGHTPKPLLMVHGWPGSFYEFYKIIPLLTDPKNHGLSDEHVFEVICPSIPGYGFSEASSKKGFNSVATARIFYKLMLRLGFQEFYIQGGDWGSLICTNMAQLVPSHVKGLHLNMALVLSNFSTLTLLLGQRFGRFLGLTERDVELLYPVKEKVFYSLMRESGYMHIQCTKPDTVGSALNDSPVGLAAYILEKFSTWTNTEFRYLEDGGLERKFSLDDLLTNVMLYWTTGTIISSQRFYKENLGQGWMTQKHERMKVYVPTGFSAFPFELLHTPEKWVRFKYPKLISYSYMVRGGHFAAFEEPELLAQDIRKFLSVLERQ

[1] = system: human alkaline phosphatase; experiment: Selectivity: inhibition of alkaline phosphatase; format: biochemical; conditions: selectivity panel
human sEH = target: T2, human sEH (Homo sapiens, UniProt P34913); experiment: Reversibility of inhibition: incubation with inhibitor, then dialysis; format: biochemical; conditions: 20 nM human sEH incubated with 10 μM inhibitor for 15 min, then dialyzed
T2 sequence (P34913 1-555): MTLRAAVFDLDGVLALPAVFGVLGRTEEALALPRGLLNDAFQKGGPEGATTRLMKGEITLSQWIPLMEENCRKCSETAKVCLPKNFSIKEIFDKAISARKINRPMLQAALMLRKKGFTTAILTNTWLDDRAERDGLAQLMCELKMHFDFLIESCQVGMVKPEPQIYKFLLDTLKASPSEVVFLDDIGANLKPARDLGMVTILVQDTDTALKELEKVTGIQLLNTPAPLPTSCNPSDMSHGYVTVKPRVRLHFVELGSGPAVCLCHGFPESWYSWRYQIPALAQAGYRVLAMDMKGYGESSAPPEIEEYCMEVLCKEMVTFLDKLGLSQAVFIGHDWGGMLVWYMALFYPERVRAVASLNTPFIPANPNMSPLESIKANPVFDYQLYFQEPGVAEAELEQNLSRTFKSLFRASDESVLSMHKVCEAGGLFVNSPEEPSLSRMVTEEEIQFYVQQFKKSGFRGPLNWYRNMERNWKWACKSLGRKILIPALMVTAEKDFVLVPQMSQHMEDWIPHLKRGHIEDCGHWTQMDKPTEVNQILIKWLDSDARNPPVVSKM

sEH-phosphatase activity = target: T3, sEH-phosphatase activity (Homo sapiens, UniProt P34913); experiment: Selectivity: inhibition of sEH-phosphatase activity; format: biochemical; conditions: selectivity panel
T3 sequence (P34913 1-555): T2 sequence (P34913 1-555)

[2] = human, cited from earlier work

- Inhibition of human microsomal EH (human microsomal EH): only inhibit the sEH
- Inhibition of human alkaline phosphatase [1]: only inhibit the sEH
- sEH activity recovered after dialysis (human sEH): more than 80%
- Inhibition of sEH-phosphatase activity (sEH-phosphatase activity): only inhibit the sEH
SMILES: C[C@]12CC[C@@H]3c4ccc(O)cc4C[C@@H](CCCCCCCCC[S+]([O-])CCCC(F)(F)C(F)(F)F)[C@H]3[C@@H]1CC[C@@H]2O (stereo partly shown) [fulvestrant]
- Inhibition of a series of esterases and amidases (esterases and amidases): only inhibit the sEH
- Stability in humans [2]: very stable
- Blood concentration ([2]; for several weeks following intramuscular treatment): around 10 nM
